We go through eleven molecules from ChEMBL document CHEMBL2046364, “Synthesis and evaluation of novel 3a,9a-dihydro-1-ethoxycarbonyl-1-cyclopenteno[5,4-b]benzopyran-4-ones as antifungal agents” (2012).

In brackets after ≈: the same amount, converted by molar mass. A value given as a limit tells only on which side of the number the result lay.

Common to all, as to assay type: functional
For assay [1], the system named is Aspergillus niger. The experiment in a line: Antifungal activity against Aspergillus niger MTCC 2642 by spectrophotometry based assay.
Assay [2] has as its system Saccharomyces cerevisiae. Description: Antifungal activity against Saccharomyces cerevisiae MTCC 1344 by spectrophotometry based assay.
The nature of assay [3]: Antifungal activity against Epidermophyton MTCC 613 by spectrophotometry based assay.
Assay [4] relates to Candida albicans. Description: Antifungal activity against Candida albicans MTCC 3018 by spectrophotometry based assay.
A short description of assay [5]: Antifungal activity against Cryptococcus gastricus MTCC 1715 by spectrophotometry based assay. As to conditions: Goffeauzyma gastrica.

The MIC is the least concentration at which growth counts as inhibited. For the molecule `CCOC(=O)C1=CC[C@H]2C(=O)c3cc(F)ccc3O[C@H]12`, the MIC was over 100 µg/mL in assay [1], 25 µg/mL (≈ 90.5 µM) in assay [2] and over 100 µg/mL in assay [3].

Regarding `CCOC(=O)C1=CC[C@H]2C(=O)c3ccc(Cl)cc3O[C@H]12`, the values for the MIC in assay [4], in assay [1] and in assay [2] were 50 µg/mL (≈ 171 µM), 25 µg/mL (≈ 85.4 µM) and 25 µg/mL (≈ 85.4 µM), respectively.

Take `CCOC(=O)C1=CC[C@H]2C(=O)c3cc(F)c(Cl)cc3O[C@H]12`: the MIC in assay [4] was over 100 µg/mL; in assay [1] it was 100 µg/mL (≈ 322 µM); in assay [2], 25 µg/mL (≈ 80.5 µM).

Regarding `CCOC(=O)C1=CC[C@H]2C(=O)c3cc(C)ccc3O[C@H]12`, the MIC in assay [1], in assay [2] and in assay [3] was over 100 µg/mL each time.

In the case of `CCOC(=O)C1=CC[C@H]2C(=O)c3cc(Cl)ccc3O[C@H]12`, the MIC is 50 µg/mL (≈ 171 µM) in assay [4], 12.5 µg/mL (≈ 42.7 µM) in assay [1] and over 100 µg/mL in assay [2].

For the molecule `CCOC(=O)C1=CC[C@H]2C(=O)c3cc(Br)ccc3O[C@H]12`, the MIC in assay [1] and in assay [2] was 50 µg/mL (≈ 148 µM) in each case.

For `OC(Cn1cncn1)(Cn1cncn1)c1ccc(F)cc1F` [FLUCONAZOLE], the MIC in assay [4] is 3.12 µg/mL (≈ 10.2 µM); in assay [1] it was 1.5 µg/mL (≈ 4.9 µM); in assay [5], 6.25 µg/mL (≈ 20.4 µM); in assay [2] it was 1.5 µg/mL (≈ 4.9 µM); in assay [3] it was 6.25 µg/mL (≈ 20.4 µM).

Turning to `CCOC(=O)C1=CC[C@H]2C(=O)c3cccc(Cl)c3O[C@H]12`, the MIC in assay [4] was 50 µg/mL (≈ 171 µM); in assay [1] it was 12.5 µg/mL (≈ 42.7 µM); in assay [5] it was over 100 µg/mL; in assay [2], 12.5 µg/mL (≈ 42.7 µM); in assay [3] it was 50 µg/mL (≈ 171 µM).

For `CCOC(=O)C1=CC[C@H]2C(=O)c3ccc(Br)cc3O[C@H]12`, the MIC in assay [1] and in assay [2] was 100 µg/mL (≈ 297 µM) each time.

In the case of `CCOC(=O)C1=CC[C@H]2C(=O)c3ccccc3O[C@H]12`, the MIC in assay [4] is 25 µg/mL (≈ 96.8 µM); in assay [1], 25 µg/mL (≈ 96.8 µM); in assay [2], 50 µg/mL (≈ 194 µM); in assay [3], over 100 µg/mL.

As for `CCOC(=O)C1=CC[C@H]2C(=O)c3ccc(F)cc3O[C@H]12`, the MIC in assay [4] was found to be 25 µg/mL (≈ 90.5 µM); in assay [1], 12.5 µg/mL (≈ 45.2 µM); in assay [5], 100 µg/mL (≈ 362 µM); in assay [2] it was 12.5 µg/mL (≈ 45.2 µM); in assay [3], 50 µg/mL (≈ 181 µM).
